Laboratory results reported in PubChem BioAssay AID248 (DTP/NCI, 2004).
“And” between values parts separate entries of the source, which are not always exact repeats. Equal entries are not always repeated. Inconclusive results and toxic doses are left out. No stated cut-off is given here; in the data, active means T/C of 150% or more; inactive means T/C below 125%.

System: L1210 leukemia ip in BDF1 mice, survival T/C
Assay: NCI In Vivo Anticancer Drug Screen. Data for tumor model L1210 Leukemia (intraperitoneal) in B6D2F1 (BDF1) mice
Settings: endpoint: mean survival time, higher = longer survival
How it was run: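 Transplanted-tumor mice were given test agent; controls received vehicle only. Survival readings from the two groups were divided (treated over control).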

[1] = dose: 100.0 mg/kg/injection, schedule: Q01DX009 (ip), vehicle: Klucel (hydroxypropylcellulose) (HPC)
[2] = dose: 200.0 mg/kg/injection, schedule: Q01DX009 (ip), vehicle: Klucel (hydroxypropylcellulose) (HPC)
[3] = dose: 100.0 mg/kg/injection, schedule: Q04DX002 (ip), vehicle: Klucel (hydroxypropylcellulose) (HPC)
[4] = dose: 200.0 mg/kg/injection, schedule: Q04DX002 (ip), vehicle: Klucel (hydroxypropylcellulose) (HPC)
[5] = dose: 400.0 mg/kg/injection, schedule: Q04DX002 (ip), vehicle: Klucel (hydroxypropylcellulose) (HPC)
[6] = dose: 100.0 mg/kg/injection, schedule: Q04DX003 (ip), vehicle: saline with Tween-80
[7] = dose: 200.0 mg/kg/injection, schedule: Q04DX003 (ip), vehicle: saline with Tween-80
[8] = dose: 400.0 mg/kg/injection, schedule: Q04DX003 (ip), vehicle: saline with Tween-80

Measured: T/C

Cc1ccc(N=N/C(=N\Nc2ccc(C)cc2)[N+](=O)[O-])cc1
inactive: dose: 75.0 mg/kg/injection, schedule: Q01DX001 (ip), vehicle: acetone 90 % of control | dose: 150.0 mg/kg/injection, schedule: Q01DX001 (ip), vehicle: acetone 94 % of control and 86 % of control and 89 % of control | dose: 300.0 mg/kg/injection, schedule: Q01DX001 (ip), vehicle: acetone 93 % of control and 87 % of control and 88 % of control

CSc1cccc(C(=O)O)c1
inactive: dose: 100.0 mg/kg/injection, schedule: Q01DX001 (ip), vehicle: Klucel (hydroxypropylcellulose) (HPC) 102 % of control | dose: 200.0 mg/kg/injection, schedule: Q01DX001 (ip), vehicle: Klucel (hydroxypropylcellulose) (HPC) 102 % of control | dose: 400.0 mg/kg/injection, schedule: Q01DX001 (ip), vehicle: Klucel (hydroxypropylcellulose) (HPC) 94 % of control

CCN=C(NCC)Nc1ccc(NC(=O)Nc2ccc(NC(=O)Nc3ccc(NC(=NCC)NCC)cc3)cc2)cc1
inactive: dose: 1.0 mg/kg/injection, schedule: Q01DX Z (ip), vehicle: carboxymethylcellulose (CMC) 97 % of control | dose: 2.0 mg/kg/injection, schedule: Q01DX Z (ip), vehicle: carboxymethylcellulose (CMC) 96 % of control | dose: 4.1 mg/kg/injection, schedule: Q01DX Z (ip), vehicle: carboxymethylcellulose (CMC) 102 % of control | dose: 8.3 mg/kg/injection, schedule: Q01DX Z (ip), vehicle: carboxymethylcellulose (CMC) 111 % of control

CCCCCCCCCC(=O)N/N=C/c1c[nH]c2ccccc12
inactive: [1] 95 % of control | [2] 114 % of control | dose: 400.0 mg/kg/injection, schedule: Q01DX009 (ip), vehicle: Klucel (hydroxypropylcellulose) (HPC) 100 % of control

CCCCCCCCCCCCC(O)(CC)C(=O)O (centres undefined)
inactive: [3] 98 % of control | [4] 91 % of control | [5] 91 % of control

c1cc2c(c3c1CC1c4cc5c(cc4CCN1C3)OCO5)OCO2 (centres undefined)
inactive: dose: 100.0 mg/kg/injection, schedule: Q01DX001 (ip), vehicle: saline 86 % of control

NCCSC1(O)C(=O)c2ccccc2C1=O
inactive: dose: 37.5 mg/kg/injection, schedule: Q04DX003 (ip), vehicle: saline 97 % of control | dose: 75.0 mg/kg/injection, schedule: Q01DX001 (ip), vehicle: saline 104 % of control | dose: 75.0 mg/kg/injection, schedule: Q04DX003 (ip), vehicle: saline 116 % of control | dose: 150.0 mg/kg/injection, schedule: Q01DX001 (ip), vehicle: saline 110 % of control | dose: 150.0 mg/kg/injection, schedule: Q04DX003 (ip), vehicle: saline 111 % of control

Nc1nc(N)c(-c2ccc(Cl)c(Cl)c2)c(CCc2ccc(NS(=O)(=O)c3cccc(S(=O)(=O)F)c3)cc2)n1
inactive: dose: 100.0 mg/kg/injection, schedule: Q01DX001 (ip), vehicle: saline with Tween-80 98 % of control | dose: 200.0 mg/kg/injection, schedule: Q01DX001 (ip), vehicle: saline with Tween-80 95 % of control | dose: 400.0 mg/kg/injection, schedule: Q01DX001 (ip), vehicle: saline with Tween-80 87 % of control

CC(C)NC(=O)C1C2C=CC(CC2)C1C(=O)NC(C)C (centres undefined)
inactive: [6] 100 % of control | [7] 92 % of control | [8] 104 % of control

CNCCOC(c1ccccc1)c1ccccc1C (centres undefined)
inactive: dose: 3.12 mg/kg/injection, schedule: Q01DX009 (ip), vehicle: saline 107 % of control | dose: 5.0 mg/kg/injection, schedule: Q01DX001 (ip), vehicle: saline 103 % of control | dose: 6.25 mg/kg/injection, schedule: Q01DX009 (ip), vehicle: saline 96 % of control | dose: 10.0 mg/kg/injection, schedule: Q01DX001 (ip), vehicle: saline 100 % of control | dose: 12.5 mg/kg/injection, schedule: Q01DX009 (ip), vehicle: saline 101 % of control | dose: 20.0 mg/kg/injection, schedule: Q01DX001 (ip), vehicle: saline 105 % of control | dose: 25.0 mg/kg/injection, schedule: Q01DX009 (ip), vehicle: saline 101 % of control | dose: 25.0 mg/kg/injection, schedule: Q04DX003 (ip), vehicle: saline 94 % of control | dose: 40.0 mg/kg/injection, schedule: Q01DX001 (ip), vehicle: saline 100 % of control | dose: 50.0 mg/kg/injection, schedule: Q01DX009 (ip), vehicle: saline 106 % of control | dose: 50.0 mg/kg/injection, schedule: Q04DX003 (ip), vehicle: saline 108 % of control | dose: 80.0 mg/kg/injection, schedule: Q01DX001 (ip), vehicle: saline 103 % of control

CC(=O)OI(OC(C)=O)c1ccc(-c2ccccc2)cc1
inactive: [1] 91 % of control | [2] 102 % of control

CCCCCCC(=O)/C=C\c1ccc([N+](C)(C)C)cc1
inactive: dose: 25.0 mg/kg/injection, schedule: Q01DX009 (sc), vehicle: steriod suspending solution 93 % of control | dose: 25.0 mg/kg/injection, schedule: Q04DX003 (sc), vehicle: steriod suspending solution 94 % of control | dose: 50.0 mg/kg/injection, schedule: Q01DX009 (sc), vehicle: steriod suspending solution 97 % of control | dose: 50.0 mg/kg/injection, schedule: Q04DX003 (sc), vehicle: steriod suspending solution 92 % of control | dose: 100.0 mg/kg/injection, schedule: Q01DX001 (sc), vehicle: steriod suspending solution 86 % of control | dose: 100.0 mg/kg/injection, schedule: Q04DX003 (sc), vehicle: steriod suspending solution 106 % of control

C=CCc1cc(CN(CCO)Cc2cc(CC=C)cc(OC)c2O)c(O)c(OC)c1
inactive: dose: 12.5 mg/kg/injection, schedule: Q04DX003 (ip), vehicle: Klucel (hydroxypropylcellulose) (HPC) 95 % of control | dose: 25.0 mg/kg/injection, schedule: Q04DX003 (ip), vehicle: Klucel (hydroxypropylcellulose) (HPC) 101 % of control | dose: 50.0 mg/kg/injection, schedule: Q04DX003 (ip), vehicle: Klucel (hydroxypropylcellulose) (HPC) 95 % of control

CC1(C)C(=O)CC[C@@]2(C)C1=CC[C@@H]1[C@@H]2CC[C@@]2(C)[C@H]1CC[C@]2(C)O
inactive: dose: 50.0 mg/kg/injection, schedule: Q01DX Z (sc), vehicle: steriod suspending solution 91 % of control | dose: 250.0 mg/kg/injection, schedule: Q01DX Z (sc), vehicle: steriod suspending solution 96 % of control | dose: 500.0 mg/kg/injection, schedule: Q01DX Z (sc), vehicle: steriod suspending solution 101 % of control

O=[N+]([O-])c1ccc(/C=N/N2CCCCC2)s1
inactive: [6] 97 % of control | [7] 92 % of control | [8] 89 % of control

CCc1ccccc1OC(=O)Nc1ccccc1C
inactive: [3] 95 % of control | [4] 100 % of control | [5] 95 % of control

O=C(CCn1cccc1)c1csc2ccccc12
inactive: dose: 10.0 mg/kg/injection, schedule: Q01DX001 (ip), vehicle: carboxymethylcellulose (CMC) 97 % of control | dose: 20.0 mg/kg/injection, schedule: Q01DX001 (ip), vehicle: carboxymethylcellulose (CMC) 98 % of control | dose: 40.0 mg/kg/injection, schedule: Q01DX001 (ip), vehicle: carboxymethylcellulose (CMC) 100 % of control | dose: 80.0 mg/kg/injection, schedule: Q01DX001 (ip), vehicle: carboxymethylcellulose (CMC) 100 % of control | dose: 200.0 mg/kg/injection, schedule: Q01DX001 (ip), vehicle: carboxymethylcellulose (CMC) 88 % of control

CC(CC(=O)O)C1Nc2ccccc2S(=O)(=O)C(c2ccccc2)C1=O (centres undefined)
inactive: dose: 100.0 mg/kg/injection, schedule: Q04DX003 (ip), vehicle: Klucel (hydroxypropylcellulose) (HPC) 95 % of control and 100 % of control | dose: 200.0 mg/kg/injection, schedule: Q04DX003 (ip), vehicle: Klucel (hydroxypropylcellulose) (HPC) 99 % of control

O=C(NCCCC(NC(=O)OCc1ccccc1)C(=O)NCCCNCCCCNCCCNC(=O)C(CCCNC(=O)OCc1ccccc1)NC(=O)OCc1ccccc1)OCc1ccccc1 (centres undefined)
inactive: dose: 10.0 mg/kg/injection, schedule: Q01DX Z (ip), vehicle: saline 90 % of control

C/C(=C\Cl)CN1C(=O)c2ccccc2C1=O
inactive: dose: 100.0 mg/kg/injection, schedule: Q01DX009 (ip), vehicle: saline 93 % of control | dose: 100.0 mg/kg/injection, schedule: Q04DX003 (ip), vehicle: saline 97 % of control | dose: 200.0 mg/kg/injection, schedule: Q01DX009 (ip), vehicle: saline 113 % of control | dose: 200.0 mg/kg/injection, schedule: Q04DX003 (ip), vehicle: saline 101 % of control | dose: 400.0 mg/kg/injection, schedule: Q01DX009 (ip), vehicle: saline 102 % of control | dose: 400.0 mg/kg/injection, schedule: Q04DX003 (ip), vehicle: saline 105 % of control
